Source: patent EP0292365A2, “4-Amino-5,8-quinazolindione derivatives, process for their preparation and pharmaceutical compositions containing them” (CENTRE NATIONAL DE LA RECHERCHE SCIENTIFIQUE, priority 1987, dated 1988)

Key:
[1] = test system: cellules de lignée MCF-7; assay: Effect on in vitro cell growth, MCF-7 line (Feulgen staining, automated scanning microscopy); type: cell-based, humaine; details: for nombre de cellules observées par champ de microscope: MCF-7
Experimental: (§1) Les cellules tumorales en croissance exponentielle sont ensemencées (10.000 cellules/ml) dans des boîtes à Petri contenant au fond de la boîte un couvre-objet (18 x 18 mm) et 3 ml de MEM (MEM = milieu essentiel minimum) + 5 % FCS (FCS = serum de veau fetal) (v/v). Après 24 heures d'incubation, quand les cellules sont bien attachées au fond de la boîte, le milieu est remplacé par MEM expérimental contenant 5 % FCS (v/v) et enrichi, par exemple de : • a) 3 ml du milieu (MEM + 5 % FCS) = témoins • b) 3 ml du milieu contenant une dose élevée du composé à tester : 10 µg/ml : (M) • c) milieu contenant une faible dose du composé à tester : 0.01 µg/ml (f) respectivement aux jours 1, 2, 3 et 4 après addition du milieu expérimental dans les boîtes de Petri. Trois couvre-objets sont fixés pour chaque condition expérimentale : éthanol 95° (75 v), formol neutre à 40 % (20 v), acide acétique (5 v), pendant 10 minutes. Les cellules témoins cultivées dans le milieu expérimental sans le produit à tester sont fixées au même moment. A la fin de la fixation, les couvre-objets sont retournés et montés sur des lames histologiques à l'aide de produit commercialisé sous la marque DPX par la Société British Drug House et conservés à l'abri de la lumière et à 4° en attendant d'être colorés.
(§2) Les lames avec les couvre-objets sont colorées par une réaction de Feulgen modifiée. Toutes les lames d'une condition expérimentale sont conditionnées par le réactif de Feulgen en même temps, pendant une heure, après hydrolyse dans un milieu HCI 6N pendant une heure à 20° C. Les préparations cellulaires sont ensuite conservées à l'abri de la lumière et à 4°C en attendant l'analyse.
(§3) Grâce à un système d'analyse microscopique à balayage automatique, on détermine l'effet de la drogue sur la croissance cellulaire, au cours du temps, sur deux lignées cellulaires tumorales d'origine humaine : la lignée MCF-7 d'origine mammaire et la lignée HBL (mélanome malin).
(§4) On a représenté dans le tableau C les résultats relatifs à l'action du composé 63 sur la croissance des cellules de lignée MCF-7 et dans le tableau C BIS, les résultats relatifs à l'action du composé 63 sur la croissance des cellules de lignée HBL. Ces résultats montrent le nombre de cellules survivant au traitement après 1, 2, 3 et 4 jours d'incubation et à trois doses différentes (10 µg/ml, 1 µg/ml et 0,1 µg/ml).
(§5) Chaque chiffre correspond au nombre de cellules observées par champ de microscope.

[2] = test system: réticulosarcome M 5076; assay: First trials on reticulosarcoma M 5076; type: in vivo; details: souris; doses infratoxique; premiers essais
[3] = test system: cellules de lignée HBL; assay: Effect on in vitro cell growth, HBL line (Feulgen staining, automated scanning microscopy); type: cell-based, humaine; details: for nombre de cellules observées par champ de microscope: HBL
Experimental: as §1, §2, §3, §4, §5

[4] = Determination of toxicity (DLo), single intraperitoneal dose; type: in vivo; details: voie intrapéritonéale, dose unique, souris Swiss, suivies pendant un mois
Excerpt: Ils sont tous administrés, par voie intrapéritonéale (ip), à des souris Swiss de 22 ± 2 g, à doses uniques exprimées en mg/kg de poids corporel. Les animaux sont suivis pendant un mois. La mortalité et les signes de toxicité sont relevés. On détermine ainsi la DLoqui sera la dose maximale utilisée pour la détermination de l'activité antitumorale.

[5] = test system: cellules leucémiques L 1210; assay: In vitro cytotoxicity: growth inhibition of L 1210 leukemia cells (Coulter count); type: cell-based, souris; details: Mus musculus, L1210, 48 h, read-out: CI50 après 48 h de culture
Experimental: La détermination de la cytotoxicité in vitro sur les cellules leucémiques L 1210 est la méthode utilisée pour sélectionner les molécules potentiellement antitumorales. Le protocole mis en oeuvre est le suivant :
les cellules leucématiques L 1210 adaptées à la culture en suspension stationnaire sont entretenues dans du milieu RPMI 1640 (commercialisé par Seromed) additionné de 20 % de sérum de cheval décomplémenté, L-glutamine (2 mM), pénicilline (200 U/ml), streptomycine (50µg/ml) et cultivées à 37° C dans une atmosphère à 5 % de C02. Les cultures testées par la méthode de BARILE (BARILE M.F. Mycoplasmal contamination of cell culture, in Contamination in Tissue Culture, J. Fogh (ed.) Acad. Press, 132-156, 1973) sont exemptes de contaminations bactériennes et mycoplasmiques.
Pour les expérimentations, les cellules sont ensemencées à la concentration de 0,8.10^5 cellules/ml et cultivées par 2 ml dans des flacons de 15 ml. Les substances à étudier sont dissoutes dans du DMSO (1 % final) dont on a préalablement vérifié l'innocuité. Des quantités croissantes de produit à tester sont ajoutées au temps 0 et des numérations sont faites au compteur COULTER après 24 et 48 heures de culture. Des séries de contrôle sont effectuées avec des quantités de DMSO équivalentes à celles des séries traitées.
Le temps de doublement des cellules témoins est approximativement de 12 heures.
La cytotoxicité est déterminée d'après l'inhibition de croissance des cellules L 1210, calculée par rapport aux témoins correspondants selon la formule : [formula] • T = concentration de cellules non traitées, • t = concentration de cellules traitées.
La concentration de produit qui diminue la croissance cellulaire de 50 % (Clso) est calculée d'après la méthode des régressions linéaires en coordonnées log-probit.
Lorsque la Cl50 est voisine de la micromolarité (égale ou inférieure à 1 µM), il existe une présomption d'activité antitumorale et les essais in vivo indiqués ci-après sont effectués.
A titre d'exemple, la CI50 mesurée 48 heures après traitement des cellules par les composés de l'invention testés est la suivante : […]

CN(C)CCCNc1ncnc2c1C(=O)C(N1CC1)=C(N1CC1)C2=O [composé 63]
nombre de cellules observées par champ de microscope ([1]; 0.1µg/ml (f), 1j): 174± 38 ns | nombre de cellules observées par champ de microscope ([1]; 0.1µg/ml (f), 2j): 92± 21 | nombre de cellules observées par champ de microscope ([1]; 0.1µg/ml (f), 3j): 38± 6 | nombre de cellules observées par champ de microscope ([1]; 0.1µg/ml (f), 4j): 30± 4 | nombre de cellules observées par champ de microscope ([1]; 1µg/ml (M), 1j): 133± 7 ns | nombre de cellules observées par champ de microscope ([1]; 1µg/ml (M), 2j): 85± 8 | nombre de cellules observées par champ de microscope ([1]; 1µg/ml (M), 3j): 58± 7 | nombre de cellules observées par champ de microscope ([1]; 1µg/ml (M), 4j): 63± 8 | nombre de cellules observées par champ de microscope ([1]; 10µg/ml (F), 1j): 128± 11 ns | nombre de cellules observées par champ de microscope ([1]; 10µg/ml (F), 2j): 93± 4 | nombre de cellules observées par champ de microscope ([1]; 10µg/ml (F), 3j): 87± 20 | nombre de cellules observées par champ de microscope ([1]; 10µg/ml (F), 4j): 88± 18 | croissance des cellules MCF-7 ([1]; dose-indépendante, summary of tableau C): ralentit fortement la croissance | activité sur le réticulosarcome M 5076 [2]: nette activité | nombre de cellules observées par champ de microscope ([3]; 0.1µg/ml (f), 1j): 402±100 ns | nombre de cellules observées par champ de microscope ([3]; 0.1µg/ml (f), 2j): 233± 36 | nombre de cellules observées par champ de microscope ([3]; 0.1µg/ml (f), 3j): 633± 83 ns | nombre de cellules observées par champ de microscope ([3]; 0.1µg/ml (f), 4j): 474±265 ns | nombre de cellules observées par champ de microscope ([3]; 1µg/ml (M), 1j): 282± 17 ns | nombre de cellules observées par champ de microscope ([3]; 1µg/ml (M), 2j): 187± 35 | nombre de cellules observées par champ de microscope ([3]; 1µg/ml (M), 3j): 199± 71 | nombre de cellules observées par champ de microscope ([3]; 1µg/ml (M), 4j): 197± 67 | nombre de cellules observées par champ de microscope ([3]; 10µg/ml (F), 1j): 318± 83 ns | nombre de cellules observées par champ de microscope ([3]; 10µg/ml (F), 2j): 166± 28 | nombre de cellules observées par champ de microscope ([3]; 10µg/ml (F), 3j): 553±100 ns | nombre de cellules observées par champ de microscope ([3]; 10µg/ml (F), 4j): 210± 48 | croissance des cellules HBL ([3]; à moyenne et forte dose, summary of tableau C BIS): ralentit faiblement la croissance | DLo [4]: ~3 mg/kg | IC50 [5]: 2.7 nM
